Test results: US4059586A, “5-Alkoxy-2-alkyl-1,2,3,4-tetrahydroisoquinolene-8-carboxaldehyde and derivatives” (Marion Laboratories, Inc., priority 1976, dated 1977)

Key:
hypertensive rats = experiment: percent change in systolic blood pressure in hypertensive rats; format: in vivo; settings: base at 50 mg/kg i.p.
Procedure: (§1) 5-hydroxy-2-methyl-7,8-cyclopentano[h]-1,2,3,4-tetrahydroisoquinoline has an ALD50 in mice of 100-150 mg/kg i.p. When administered as the base at 50 mg/kg i.p. to hypertensive rats the following percent change in systolic blood pressure was observed: […]

[1] = ALD50 in mice (acute toxicity, i.p.); settings: mouse, in vivo, ip
Procedure: as §1

CN1CCc2c(O)cc3c(c2C1)CCC3 [5-hydroxy-2-methyl-7,8-cyclopentano[h]-1,2,3,4-tetrahydroisoquinoline]
percent change in systolic blood pressure (hypertensive rats; 1 hour): -18.9%
percent change in systolic blood pressure (hypertensive rats; 2 hours): -13.6%
percent change in systolic blood pressure (hypertensive rats; 4 hours): -11.2%
percent change in systolic blood pressure (hypertensive rats; 24 hours): -4.7%
LD50 [1]: 100 to 150 mg/kg
